Assays:
[1] = molecular target: T1, IDH1^R132C (Homo sapiens, UniProt O75874, R132C); test: NADPH depletion assay, IDH1 R132C; type: biochemical
T1 construct: purchased not specified
In short: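 IDH1 R132C (2 nM) preincubated 15 min at RT with compound in Tris-HCl pH 7.6/MgCl2 buffer, then 60 min RT with NADPH and 0.14 mM alpha-ketoglutarate. Remaining NADPH read by diaphorase/resazurin fluorescence (Ex544/Em590).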

[2] = system: HT-1080 (IDH1^R132C); test: Cellular 2-HG production assay, HT-1080; type: cell-based; conditions: Homo sapiens, HT-1080, 72 h, inhibition of 2HG production, 72 hr incubation, LC-MS/MS; read-out: HT1080 2-HG IC50
Protocol: Cell lines HT-1080 (commercially available) and U87-MG-IDH1^R132H (obtained in analoy to the procedure reported in J. Mol. Neurosci 2013, 50, 165-71) are maintained in E-MEM 10% FCS and incubated at 37° C. in a humidified 5% CO2 atmosphere. Stably transfected U87-MG cell lines are also supplemented with 500 μg/mL G418.
Cells are seeded into 96 well black flat bottom plates at a density of 500 cells/well in 100 μL complete medium. After 24 hr the medium is replaced with 200 uL of fresh medium and compounds (dissolved into DMSO) are administrated to the cells using D300E Digital Dispenser (Tecan).
After 72 hr of incubation 100 uL from each well are collected and used for 2HG (R(−)-2-hydroxyglutarate) quantification.
Levels of 2-HG in cell culture media are determined by LC-MS/MS. Cell supernatants (100 μL/well) are treated with 1 M aqueous trichloroacetic acid containing 130 μM of the internal standard 2-HG-d3 (20 μL/well) in a 96-well plate.
The plates are sealed, mildly vortexed for 60 minutes, centrifuged at 4,000 RPM for 15 minutes, placed in a refrigerated autosampler taking care not to shake them, and aliquots of the upper part of the samples are directly injected in the chromatographic system. Calibration standards are obtained by ten fold dilution of aqueous 2-HG stock solutions with blank cell culture medium and denatured exactly in the same way as described above for samples. Samples and standards are assayed for 2-HG by reversed phase chromatography on a C18 column eluted with aqueous 0.15% formic acid and briefly washed with 90% methanol at the end of the run. 2-HG is determined by negative ion electrospray ionization with the internal standard method on a triple quadrupole mass spectrometer monitoring the MRM transitions 147>129 (2-HG) and 150>132 (2-HG-d3). 2-HG inhibition was calculated by comparing treated versus control data using Assay Explore (Symyx) software, with IC50 determined using a sigmoidal fitting algorithm.

T1 sequence (O75874 whole entry R132C): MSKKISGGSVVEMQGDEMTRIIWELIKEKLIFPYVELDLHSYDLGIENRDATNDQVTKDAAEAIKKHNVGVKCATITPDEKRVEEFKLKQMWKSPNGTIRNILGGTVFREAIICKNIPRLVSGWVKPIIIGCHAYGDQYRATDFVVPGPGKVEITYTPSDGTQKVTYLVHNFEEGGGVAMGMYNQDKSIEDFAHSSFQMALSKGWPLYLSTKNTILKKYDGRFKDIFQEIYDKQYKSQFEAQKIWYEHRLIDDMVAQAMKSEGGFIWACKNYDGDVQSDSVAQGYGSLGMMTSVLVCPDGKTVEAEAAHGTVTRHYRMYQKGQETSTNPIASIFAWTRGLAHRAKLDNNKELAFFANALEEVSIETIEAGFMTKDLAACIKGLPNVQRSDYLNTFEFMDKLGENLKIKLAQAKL

Row | IC50 [1] [µM] | IC50 [2] [µM] | SMILES
1 | 1.7 | 1.07 | C=CC(=O)N1CC[C@H](Oc2ccc([C@H](C)Nc3ncc4ccc(=O)n(CC)c4n3)cc2)C1 [cpd 224]
2 | 0.01 | 0.0045 | CC(C)n1c(=O)ccc2cnc(N[C@@H](C)c3ccc([C@H](CC4CC4)N4CCN(C(=O)CCCl)CC4)cc3)nc21 [cpd 242, 2-{[(1S)-1-(4-{(1S)-1-[4-(3-chloropropanoyl)piperazin-1-yl]-2-cyclopropylethyl}phenyl)ethyl]amino}-8-(propan-2-yl)pyrido[2,3-d]pyrimidin-7(8H)-one]
3 | 0.02 | 0.038 | CC[C@H](c1ccc([C@H](C)Nc2ncc3ccc(=O)n(C(C)C)c3n2)cc1)N1CCN(C(=O)CCO)CC1 [cpd 243]
4 | 0.002 | 0.0023 | C=CC(=O)N1CCN([C@@H](CC2CC2)c2ccc([C@H](C)Nc3cc4c(ccc(=O)n4C(C)C)cn3)cc2)CC1 [cpd 251, 7-{[(1S)-1-{4-[(1S)-1-(4-acryloylpiperazin-1-yl)-2-cyclopropylethyl]phenyl}ethyl]amino}-1-(propan-2-yl)-1,6-naphthyridin-2(1H)-one]

Second part, the molecule before the results:

Row | SMILES | IC50 [1] [µM] | IC50 [2] [µM]
5 | C=CC(=O)N1CCN(Cc2ccc([C@H](C)Nc3ncc4ccc(=O)n(CC)c4n3)cc2)[C@H](C(C)C)C1 [cpd 209, 2-{[(1S)-1-(4-{[(2R)-4-acryloyl-2-(propan-2-yl)piperazin-1-yl]methyl}phenyl)ethyl]amino}-8-ethylpyrido[2,3-d]pyrimidin-7(8H)-one] | 0.046 | 0.0302
6 | C=CC(=O)N1CCN(C(CC)c2ccc([C@H](C)Nc3ncc4ccc(=O)n(C)c4n3)cc2)CC1 (stereo partly drawn) [cpd 215, 2-{[(1S)-1-{4-[1-(4-acryloylpiperazin-1-yl)propyl]phenyl}ethyl]amino}-8-methylpyrido[2,3-d]pyrimidin-7(8H)-one] | 0.004 | 0.0023
7 | C=CC(=O)N1CCN(C(CC)c2ccc([C@H](C)Nc3ncc4ccc(=O)n(Cc5c(F)cccc5F)c4n3)cc2)CC1 (stereo partly drawn) [cpd 216, 2-{[(1S)-1-{4-[1-(4-acryloylpiperazin-1-yl)propyl]phenyl}ethyl]amino}-8-(2,6-difluorobenzyl)pyrido[2,3-d]pyrimidin-7(8H)-one] | 0.001 | 0.0011
8 | C#Cc1ccc(Cn2c(=O)ccc3cnc(N[C@@H](C)c4ccc(CN5CCN(C(=O)C=C)CC5)cc4)nc32)c(F)c1 [cpd 217, 2-{[(1S)-1-{4-[(4-acryloylpiperazin-1-yl)methyl]phenyl}ethyl]amino}-8-(4-ethynyl-2-fluorobenzyl)pyrido[2,3-d]pyrimidin-7(8H)-one] | 0.015 | 0.0082
9 | C=CC(=O)N1CCN(C(CC)c2ccc([C@H](C)Nc3ncc4ccc(=O)n(C5CC5)c4n3)cc2)CC1 (stereo partly drawn) [cpd 218, 2-{[(1S)-1-{4-[1-(4-acryloylpiperazin-1-yl)propyl]phenyl}ethyl]amino}-8-cyclopropylpyrido[2,3-d]pyrimidin-7(8H)-one] | 0.013 | 0.0021
10 | C=C(C)C(=O)N1CCN(C(CC)c2ccc([C@H](C)Nc3ncc4ccc(=O)n(C(C)C)c4n3)cc2)CC1 (stereo partly drawn) [cpd 221, 2-{[(1S)-1-(4-{1-[4-(2-methylacryloyl)piperazin-1-yl]propyl}phenyl)ethyl]amino}-8-(propan-2-yl)pyrido[2,3-d]pyrimidin-7(8H)-one] | 0.068 | 0.142
11 | C/C=C/C(=O)N1CCN(C(CC)c2ccc([C@H](C)Nc3ncc4ccc(=O)n(C(C)C)c4n3)cc2)CC1 (stereo partly drawn) [cpd 222, 2-({(1S)-1-[4-(1-{4-[(2E)-but-2-enoyl]piperazin-1-yl}propyl)phenyl]ethyl}amino)-8-(propan-2-yl)pyrido[2,3-d]pyrimidin-7(8H)-one] | 0.147 | 0.168

Source: US12018023B2 (NERVIANO MEDICAL SCIENCES S.R.L., priority 2018, dated 2024)
